This is an account of results in ChEMBL document CHEMBL1201862, “PubChem BioAssay data set” (2004).

Counter-ions that a name gives are not always drawn.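 48-hour exposure; five concentrations; linearly interpolated endpoints. GI50 marks 50% less growth.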 Activity calls are given as the source filed them. No stated cut-off is given here; in the data, active = GI50 up to about 1.1 µM and inactive = higher. Some results are limits rather than exact numbers.

Among the test systems are CAKI-1; CCRF-CEM; EKVX; HL-60; M14; MCF7; Malme-3M; NCI-H23; OVCAR-4; PC-3; SF-295; SF-539; SNB-75; SR; TK-10; U-251; UACC-62; UO-31; LOX IMVI; HOP-92.
Holding throughout (test): DTP human tumour cell line panel, 48 h

The GI50 is the concentration that inhibits growth by half. In the case of `COc1ccc(N2C(=O)C3c4[nH]c5ccccc5c4C4CCCCCCCC4C3C2=O)cc1` (stereo not drawn), the GI50 with CAKI-1 was > 10 µM (inactive); in the test with CCRF-CEM it was 2.07 µM (inactive); in the test on EKVX, > 10 µM (inactive); with HL-60, > 10 µM (inactive); in the test on M14, > 10 µM (inactive); with MCF7, > 10 µM (inactive). For the same compound, the GI50 in the test on Malme-3M was > 10 µM (inactive); in the test with NCI-H23, > 10 µM (inactive); in the test on OVCAR-4 it was > 10 µM (inactive); with PC-3, > 10 µM (inactive); in the test with SF-295, > 10 µM (inactive); in the test with SF-539 it was 6.95 µM (inactive). Besides, the GI50 was 5.22 µM (inactive) with SNB-75; > 10 µM (inactive) in the test on SR; > 10 µM (inactive) with TK-10; > 10 µM (inactive) with U-251; > 10 µM (inactive) in the test on UACC-62; > 10 µM (inactive) in the test on UO-31.

Consider `CC(NC(CC12CC3CC(CC(C3)C1)C2)C(N)=O)c1ccccc1` (stereo not drawn), for which the GI50 in the test on CAKI-1 was 23.3 µM (inactive); with CCRF-CEM it was 19.1 µM (inactive); with EKVX, 23.4 µM (inactive); in the test on HL-60 it was 10.1 µM (inactive); in the test with LOX IMVI it was 15.7 µM (inactive); with M14 it was 21.1 µM (inactive). Further, the GI50 in the test with MCF7 was 35 µM (inactive); in the test on Malme-3M, 17.9 µM (inactive); in the test with OVCAR-4 it was 33.7 µM (inactive); in the test on PC-3, 27 µM (inactive); in the test on SF-295, 13 µM (inactive); with SR it was 17.4 µM (inactive). The GI50 in the test with TK-10 was 26.6 µM (inactive); in the test with U-251, 13.3 µM (inactive); in the test on UACC-62, 20.3 µM (inactive); with UO-31, 19.2 µM (inactive).

In the case of `NNc1[nH]c(=S)[nH]c1C(N)=O`, the GI50 with CCRF-CEM, in the test on EKVX, with HL-60, with LOX IMVI, in the test on M14 and with MCF7 was > 100 µM (inactive) in each case. The GI50 in the test with Malme-3M is > 100 µM (inactive); with NCI-H23 it was > 10 µM (inactive); in the test with OVCAR-4, > 100 µM (inactive); in the test on PC-3, > 100 µM (inactive); in the test with SF-295, > 100 µM (inactive); with SF-539, > 100 µM (inactive). The GI50 in the test with SNB-75, in the test with TK-10, with U-251, in the test on UACC-62 and in the test on UO-31 was > 100 µM (inactive) each time.

As to `O=C1Nc2ccccc2/C1=N/Nc1nc(-c2ccccc2)cs1`, the GI50 in the test with CAKI-1 is 18.3 µM (inactive); in the test on EKVX it was 21.4 µM (inactive); in the test with HL-60 it was 2.45 µM (inactive); in the test with HOP-92 it was 35.7 µM (inactive); with LOX IMVI it was 44.6 µM (inactive); in the test with M14, 23.1 µM (inactive). Also, the GI50 was 27.2 µM (inactive) in the test on MCF7; 47.6 µM (inactive) with NCI-H23; 40.7 µM (inactive) in the test on OVCAR-4; 19.2 µM (inactive) with PC-3; 24.5 µM (inactive) with SF-295; 10.1 µM (inactive) in the test with SF-539. Also, the GI50 in the test with SNB-75 is 8.63 µM (inactive); in the test with TK-10 it was 31.9 µM (inactive); in the test on U-251, 24.2 µM (inactive); in the test with UO-31, 24.7 µM (inactive).

Take `Cc1cc(C#N)c(Nc2ccc(F)cc2[N+](=O)[O-])s1`: the GI50 with CAKI-1 was 84.9 µM (inactive); in the test with CCRF-CEM, > 100 µM (inactive); in the test with EKVX, > 100 µM (inactive); in the test with HOP-92, 33.4 µM (inactive); in the test on M14, 71.1 µM (inactive); in the test with Malme-3M, 70.6 µM (inactive). Besides, the GI50 in the test on NCI-H23 is > 100 µM (inactive); in the test on OVCAR-4 it was > 100 µM (inactive); with PC-3, > 100 µM (inactive); with SF-295, 30.8 µM (inactive); with SF-539, 80.7 µM (inactive); in the test on SNB-75, 21.3 µM (inactive). The GI50 with SR was > 100 µM (inactive); in the test with U-251, 26.8 µM (inactive); with UACC-62, > 100 µM (inactive); in the test with UO-31 it was > 100 µM (inactive).

In the case of `C/C(Cc1ccc2c(c1)OCO2)=N\N=c1\sc2ccccc2n1C`, the GI50 is > 100 µM (inactive) in the test on CAKI-1; 92.5 µM (inactive) with CCRF-CEM; 24.8 µM (inactive) in the test with EKVX; > 100 µM (inactive) in the test on HL-60; 84.9 µM (inactive) with HOP-92; > 100 µM (inactive) with LOX IMVI. The GI50 with M14 is > 100 µM (inactive); in the test with MCF7, 72.9 µM (inactive); with Malme-3M, > 100 µM (inactive); in the test on NCI-H23 it was 78 µM (inactive); in the test on OVCAR-4 it was > 100 µM (inactive); in the test on PC-3, 97.1 µM (inactive). For the same compound, the GI50 with SF-295, in the test on SF-539, in the test on TK-10, in the test with U-251, in the test on UACC-62 and with UO-31 was > 100 µM (inactive) each time.

In the case of `O=C1C2=Cc3ccccc3OC2(O)Oc2ccc(O)cc21` (stereo not drawn), the GI50 in the test with CAKI-1 is 48.4 µM (inactive); in the test with CCRF-CEM, 7.83 µM (inactive); in the test on EKVX, > 100 µM (inactive); in the test with HOP-92, 46.8 µM (inactive); in the test on LOX IMVI it was > 100 µM (inactive); in the test with M14, > 100 µM (inactive). Besides, the GI50 in the test on MCF7 was > 100 µM (inactive); with Malme-3M, 91.2 µM (inactive); in the test on NCI-H23 it was 84.1 µM (inactive); in the test with PC-3 it was 73.3 µM (inactive); in the test with SF-295 it was > 100 µM (inactive); in the test on SF-539, > 100 µM (inactive). For the same compound, the GI50 in the test on SNB-75 is 35.9 µM (inactive); with TK-10 it was > 100 µM (inactive); in the test on U-251, > 100 µM (inactive); in the test on UACC-62, 61.8 µM (inactive).

Take `COC(=O)Nc1nc(=O)c2cc(OC)c(OC)cc2[nH]1`: the GI50 with CAKI-1 was 20.2 µM (inactive); in the test with CCRF-CEM it was 6.04 µM (inactive); with EKVX it was > 100 µM (inactive); with HL-60, 7.46 µM (inactive); in the test on M14, > 100 µM (inactive); with MCF7, 6.15 µM (inactive). In addition, the GI50 with Malme-3M was 5.31 µM (inactive); in the test on NCI-H23 it was 50 µM (inactive); with OVCAR-4, > 100 µM (inactive); in the test on PC-3, 3.29 µM (inactive); in the test on SF-295, 4.66 µM (inactive); with SF-539, 24.2 µM (inactive). Further, the GI50 with SNB-75 is 11.6 µM (inactive); with SR it was > 100 µM (inactive); in the test on TK-10, > 100 µM (inactive); in the test on U-251, 61.5 µM (inactive); in the test on UACC-62, 6.56 µM (inactive); in the test on UO-31, 49.4 µM (inactive).

Regarding `NC1=NC(c2ccccc2)CC(c2cc(Cl)cc(Br)c2O)=N1` (stereo not drawn), the GI50 was 13.3 µM (inactive) with CAKI-1; 7.71 µM (inactive) with CCRF-CEM; 10.1 µM (inactive) in the test on EKVX; 3.28 µM (inactive) in the test on HL-60; 18 µM (inactive) in the test on HOP-92; 12.7 µM (inactive) in the test with LOX IMVI. In addition, the GI50 with M14 is 14.7 µM (inactive); with MCF7, 2.44 µM (inactive); with Malme-3M, 4.55 µM (inactive); with NCI-H23 it was 10.8 µM (inactive); with OVCAR-4, 15.4 µM (inactive); with SF-295 it was 10.9 µM (inactive). The GI50 was 12.2 µM (inactive) in the test on SF-539; 14 µM (inactive) in the test with SNB-75; 6.43 µM (inactive) in the test on SR; 18.8 µM (inactive) with TK-10; 12.5 µM (inactive) with U-251; 10.1 µM (inactive) in the test with UACC-62. The GI50 in the test on UO-31 is 16.4 µM (inactive).

As for `O=C(NCCCl)Nc1cccnc1`, the GI50 in the test with CAKI-1 is 21.5 µM (inactive); in the test with CCRF-CEM, 33.7 µM (inactive); in the test on EKVX, 14.1 µM (inactive); with HL-60 it was 49.3 µM (inactive); with HOP-92, 19.9 µM (inactive); with LOX IMVI it was 19.3 µM (inactive). Further, the GI50 in the test on M14 is 17.6 µM (inactive); in the test on MCF7, 41.3 µM (inactive); in the test with Malme-3M, 2.62 µM (inactive); in the test on NCI-H23 it was 17.5 µM (inactive); with OVCAR-4 it was 43.1 µM (inactive); in the test with PC-3, 31.4 µM (inactive). Moreover, the GI50 with SF-295 was 30 µM (inactive); with SF-539 it was 31.3 µM (inactive); with SNB-75 it was 29.6 µM (inactive); in the test on TK-10, 11.2 µM (inactive); in the test with U-251 it was 16.7 µM (inactive); in the test on UACC-62 it was 15.3 µM (inactive). Besides, in the test on UO-31, the GI50 was 22.3 µM (inactive).

In the case of `COc1cc(/C=C/C(=O)OCC23CC[C@@]4(C(=O)O)CCC(C)[C@H](C)C4C2=CCC2[C@@]4(C)CC[C@H](O)C(C)(C)C4CC[C@]23C)ccc1O` (stereo partly drawn), the GI50 in the test on CAKI-1 is 44.4 µM (inactive); in the test with CCRF-CEM, 4.59 µM (inactive); with EKVX it was 15.5 µM (inactive); with HL-60 it was 23.4 µM (inactive); in the test on LOX IMVI, 15.6 µM (inactive); with M14, 23.2 µM (inactive). The GI50 in the test on MCF7 was 10.7 µM (inactive); in the test with Malme-3M, 11.9 µM (inactive); with NCI-H23, 3.89 µM (inactive); in the test on OVCAR-4, 17.5 µM (inactive); with PC-3, 16.3 µM (inactive); in the test with SF-295 it was 23.8 µM (inactive). Also, the GI50 with SF-539 is 14.7 µM (inactive); with SR it was 19.4 µM (inactive); in the test with TK-10, 2.97 µM (inactive); with U-251 it was 27.9 µM (inactive); with UACC-62, 19.6 µM (inactive).

As to `CC[C@@]1(O)C(=O)OCc2c1cc1n(c2=O)Cc2cc3c(CN(C)C)c(O)ccc3nc2-1` [TOPOTECAN HYDROCHLORIDE], the concentration for 50% growth inhibition (GI50) is 0.015 µM (active) in the test with CAKI-1; 0.0125 µM (active) in the test on CCRF-CEM; 0.333 µM (active) with EKVX; 0.0268 µM (active) with HL-60; 0.0318 µM (active) with HOP-92; 0.0149 µM (active) with MCF7. Further, the concentration for 50% growth inhibition (GI50) in the test with Malme-3M was 0.188 µM (active); with NCI-H23 it was 0.0217 µM (active); in the test on OVCAR-4, 0.412 µM (active); in the test on PC-3 it was 0.0771 µM (active); with SF-295, 0.0148 µM (active); in the test on SF-539, 0.0168 µM (active). For the same compound, the 50% growth inhibitory concentration (GI50) with SNB-75 was 0.0215 µM (active).
